Test results as given in US20220273568A1, “MULT[…] FORMULATIONS OF DEXMEDETOMIDINE” (Pacira Pharmaceuticals, Inc., priority 2019, published 2022).

Legend:
in vivo = settings: female, Sprague Dawley, rat, sc
Method: (§1) Pharmacokinetic studies of the subcutaneous dosing of the DXM PK studies discussed herein were performed in rats where bolus DXM was compared to various formulations of DXM-MVLs at doses between 0.21-0.42 mg/kg. Female Sprague Dawley rats supplied by Absorption Systems weighing about 310 g received subcutaneous injections of either a bolus of unencapsulate (free or unencapsulated) DXM dissolved in H3PO4 solution or one the of the DXM-MVL formulations suspended in saline or buffered saline (20 mM phosphate). Injections were made on the left lateral hind limb of each rat using 100 μL syringes fitted with 25G needles. Each treatment group contained 3 rats.
(§2) Plasma samples were collected at different times points (0.5, 1, 2, 6, 12, 24, 48, 72 & 96 hour post dose) for analysis. Blood samples were collected via the right saphenous vein using a 19 gauge needle prick or cardiac puncture for the final time point, placed into chilled tubes containing the appropriate anticoagulant, inverted several times to mix, protected from light, and kept on ice until centrifugation.

[1] = background statement; cited from earlier work
[2] = rat, in vivo, sc
Method: as §1, §2

Tmax (in vivo): 0.5 h
half-life (in vivo): 2 h
AUC/Dose ([2]; female, Sprague Dawley): 383 pg·h/mL/mg/kg
Cmax/Cavg [2]: 2.3
time at which plasma DXM levels peaked [2]: within an hour
SMILES: Cc1cccc([C@H](C)c2cnc[nH]2)c1C [Unencapsulated DXM solution, dexmedetomidine]
t1/2 [1]: 2 h
